# Test results published in patent US20260232767A1, “INTERLEUKIN-23 RECEPTOR ANTAGONIST PEPTIDES FOR USE IN THE TREATMENT OF PSORIASIS” (Janssen Pharmaceutica NV, priority 2023, published 2026).
# System: subjects with moderate-to-severe plaque psoriasis
# Test: PSSD symptom and sign scores, Example 2
# Assay type: in vivo, human
# Settings: for Change from Baseline in PSSD Symptom Score at Week 52, LSMean: MMRM model; for Subjects Achieving PSSD Sign Score 0 at Week 52: Subjects w/Baseline PSSD Sign Score ≥1 (Table 26, second block); for Subjects achieving PSSD Sign Score = 0 at Week 52: subjects with Baseline PSSD Sign Score ≥1; for Subjects achieving PSSD Symptom Score = 0 at Week 52: subjects with Baseline PSSD Symptom Score ≥1; for Change from Baseline in PSSD Sign Score, LSMean / Change from Baseline in PSSD Symptom Score, LSMean: MMRM
# [1] = Placebo → 100 mg QD, crossed over at or after Week 16
compound,measurement,setting,value
"CC(=O)NCCCC[C@@H]1NC(=O)[C@H](Cc2c[nH]c3c(C)cccc23)NC(=O)[C@H]([C@@H](C)O)NC(=O)[C@H](CC(N)=O)NC(=O)[C@@H](NC(C)=O)C(C)(C)SSC(C)(C)[C@@H](C(=O)N[C@@H](Cc2ccc(OCCN)cc2)C(=O)N[C@@H](Cc2ccc3ccccc3c2)C(=O)NC2(C(=O)N[C@@H](CCC(=O)O)C(=O)N[C@@H](CC(N)=O)C(=O)N[C@@H](Cc3cccnc3)C(=O)N(C)CC(N)=O)CCOCC2)NC1=O [IL-23 receptor antagonist peptide, Ac-[Pen]*-N-T-[W(7-Me)]-[Lys(Ac)]-[Pen]*-Phe[4-(2-aminoethoxy)]-[2-Nal]-[THP]-E-N-[3-Pal]-Sarc-NH2 (*[Pen]-[Pen]* formdisulfidebond)]","Change from Baseline in PSSD Sign Score at Week 52, Median",25 mg BID,−38.5
same,"Change from Baseline in PSSD Symptom Score at Week 52, Median",25 mg BID,−27.0
same,"Change from Baseline in PSSD Symptom Score at Week 52, LSMean",25 mg BID,−31.4
same,Subjects Achieving PSSD Sign Score 0 at Week 52,25 mg BID,5 (12.2%)
same,Subjects achieving PSSD Sign Score = 0 at Week 52,25 mg BID,5 (12.2%)
same,Subjects achieving PSSD Symptom Score = 0 at Week 52,25 mg BID,7 (17.1%)
same,"Change from Baseline in PSSD Sign Score at Week 52, Median",25 mg QD,−32.5
same,"Change from Baseline in PSSD Symptom Score at Week 52, Median",25 mg QD,−35.0
same,"Change from Baseline in PSSD Symptom Score at Week 52, LSMean",25 mg QD,−22.3
same,Subjects Achieving PSSD Sign Score 0 at Week 52,25 mg QD,7 (16.3%)
same,Subjects achieving PSSD Sign Score = 0 at Week 52,25 mg QD,7 (16.3%)
same,Subjects achieving PSSD Symptom Score = 0 at Week 52,25 mg QD,8 (18.6%)
same,"Change from Baseline in PSSD Sign Score at Week 52, Median",50 mg QD,−45.0
same,"Change from Baseline in PSSD Symptom Score at Week 52, Median",50 mg QD,−34.0
same,"Change from Baseline in PSSD Symptom Score at Week 52, LSMean",50 mg QD,−33.0
same,Subjects achieving PSSD Sign Score = 0 at Week 52,50 mg QD,5 (11.6%)
same,Subjects achieving PSSD Symptom Score = 0 at Week 52,50 mg QD,9 (21.4%)
same,"Change from Baseline in PSSD Sign Score at Week 52, Median",100 mg BID,−55.0
same,"Change from Baseline in PSSD Symptom Score at Week 52, Median",100 mg BID,−53.0
same,"Change from Baseline in PSSD Symptom Score at Week 52, LSMean",100 mg BID,−44.0
same,Subjects Achieving PSSD Sign Score 0 at Week 52,100 mg BID,7 (16.7%)
same,Subjects achieving PSSD Sign Score = 0 at Week 52,100 mg BID,7 (16.7%)
same,"Change from Baseline in PSSD Sign Score at Week 52, Median",100 mg QD,−43.0
same,"Change from Baseline in PSSD Symptom Score at Week 52, Median",100 mg QD,−28.0
same,"Change from Baseline in PSSD Symptom Score at Week 52, LSMean",100 mg QD,−36.5
same,Subjects Achieving PSSD Sign Score 0 at Week 52,100 mg QD,6 (14.0%)
same,"Change from Baseline in PSSD Sign Score at Week 52, Median",[1],−48.5
same,"Change from Baseline in PSSD Symptom Score at Week 52, Median",[1],−30.0
same,"Change from Baseline in PSSD Symptom Score at Week 52, LSMean",[1],−32.4
same,Subjects achieving PSSD Sign Score = 0 at Week 52,[1],(22.9%)
same,Subjects achieving PSSD Symptom Score = 0 at Week 52,[1],(34.3%)
same,"Change from Baseline in PSSD Sign Score, Mean","Week 1, 25 mg BID",−11.3
same,"Change from Baseline in PSSD Sign Score, Median","Week 1, 25 mg BID",−11.0
same,"Change from Baseline in PSSD Symptom Score, Mean","Week 1, 25 mg BID",−7.6
same,"Change from Baseline in PSSD Symptom Score, Median","Week 1, 25 mg BID",−8.0
same,"Change from Baseline in PSSD Sign Score, LSMean","Week 1, 25 mg BID",−11.4
same,"Change from Baseline in PSSD Symptom Score, LSMean","Week 1, 25 mg BID",−7.8
same,"Change from Baseline in PSSD Sign Score, Mean","Week 1, 25 mg QD",−11.9
same,"Change from Baseline in PSSD Sign Score, Median","Week 1, 25 mg QD",−10.5
same,"Change from Baseline in PSSD Symptom Score, Mean","Week 1, 25 mg QD",−12.9
same,"Change from Baseline in PSSD Symptom Score, Median","Week 1, 25 mg QD",−12.0
same,"Change from Baseline in PSSD Sign Score, LSMean","Week 1, 25 mg QD",−10.9
same,"Change from Baseline in PSSD Symptom Score, LSMean","Week 1, 25 mg QD",−11.1
same,"Change from Baseline in PSSD Sign Score, Mean","Week 1, 50 mg QD",−13.3
same,"Change from Baseline in PSSD Sign Score, Median","Week 1, 50 mg QD",−11.0
same,"Change from Baseline in PSSD Symptom Score, Mean","Week 1, 50 mg QD",−9.6
same,"Change from Baseline in PSSD Symptom Score, Median","Week 1, 50 mg QD",−12.0
same,"Change from Baseline in PSSD Sign Score, LSMean","Week 1, 50 mg QD",−13.3
same,"Change from Baseline in PSSD Symptom Score, LSMean","Week 1, 50 mg QD",−9.1
same,"Change from Baseline in PSSD Sign Score, Mean","Week 1, 100 mg BID",−15.9
same,"Change from Baseline in PSSD Sign Score, Median","Week 1, 100 mg BID",−16.0
same,"Change from Baseline in PSSD Symptom Score, Mean","Week 1, 100 mg BID",−12.5
same,"Change from Baseline in PSSD Symptom Score, Median","Week 1, 100 mg BID",−8.0
same,Subjects Achieving PSSD Symptom Score 0 (%),"Week 1, 100 mg BID, Baseline Symptom Score ≥1, N=42",(2.4%)
same,"Change from Baseline in PSSD Sign Score, LSMean","Week 1, 100 mg BID",−15.6
same,"Change from Baseline in PSSD Symptom Score, LSMean","Week 1, 100 mg BID",−11.5
same,"Change from Baseline in PSSD Sign Score, Mean","Week 1, 100 mg QD",−12.0
same,"Change from Baseline in PSSD Sign Score, Median","Week 1, 100 mg QD",−9.0
same,"Change from Baseline in PSSD Symptom Score, Mean","Week 1, 100 mg QD",−6.2
same,"Change from Baseline in PSSD Symptom Score, Median","Week 1, 100 mg QD",−7.0
same,"Change from Baseline in PSSD Sign Score, LSMean","Week 1, 100 mg QD",−12.4
same,"Change from Baseline in PSSD Symptom Score, LSMean","Week 1, 100 mg QD",−8.4
same,"Change from Baseline in PSSD Sign Score, Mean","Week 2, 25 mg BID",−20.3
same,"Change from Baseline in PSSD Sign Score, Median","Week 2, 25 mg BID",−15.0
same,"Change from Baseline in PSSD Symptom Score, Mean","Week 2, 25 mg BID",−16.0
same,"Change from Baseline in PSSD Symptom Score, Median","Week 2, 25 mg BID",−12.0
same,"Change from Baseline in PSSD Sign Score, LSMean","Week 2, 25 mg BID",−20.7
same,"Change from Baseline in PSSD Symptom Score, LSMean","Week 2, 25 mg BID",−16.2
same,"Change from Baseline in PSSD Sign Score, Mean","Week 2, 25 mg QD",−17.6
same,"Change from Baseline in PSSD Sign Score, Median","Week 2, 25 mg QD",−17.5
same,"Change from Baseline in PSSD Symptom Score, Mean","Week 2, 25 mg QD",−18.1
same,"Change from Baseline in PSSD Symptom Score, Median","Week 2, 25 mg QD",−17.0
same,"Change from Baseline in PSSD Sign Score, LSMean","Week 2, 25 mg QD",−15.7
same,"Change from Baseline in PSSD Symptom Score, LSMean","Week 2, 25 mg QD",−15.8
same,"Change from Baseline in PSSD Sign Score, Mean","Week 2, 50 mg QD",−22.7
same,"Change from Baseline in PSSD Sign Score, Median","Week 2, 50 mg QD",−22.0
same,"Change from Baseline in PSSD Symptom Score, Mean","Week 2, 50 mg QD",−17.3
same,"Change from Baseline in PSSD Symptom Score, Median","Week 2, 50 mg QD",−16.0
same,Subjects Achieving PSSD Symptom Score 0 (%),"Week 2, 50 mg QD, Baseline Symptom Score ≥1, N=42",(2.4%)
same,"Change from Baseline in PSSD Sign Score, LSMean","Week 2, 50 mg QD",−23.1
same,"Change from Baseline in PSSD Symptom Score, LSMean","Week 2, 50 mg QD",−17.2
same,"Change from Baseline in PSSD Sign Score, Mean","Week 2, 100 mg BID",−24.7
same,"Change from Baseline in PSSD Sign Score, Median","Week 2, 100 mg BID",−28.0
same,"Change from Baseline in PSSD Symptom Score, Mean","Week 2, 100 mg BID",−18.4
same,"Change from Baseline in PSSD Symptom Score, Median","Week 2, 100 mg BID",−14.0
same,"Change from Baseline in PSSD Sign Score, LSMean","Week 2, 100 mg BID",−24.3
same,"Change from Baseline in PSSD Symptom Score, LSMean","Week 2, 100 mg BID",−17.1
same,"Change from Baseline in PSSD Sign Score, Mean","Week 2, 100 mg QD",−22.6
same,"Change from Baseline in PSSD Sign Score, Median","Week 2, 100 mg QD",−20.0
same,"Change from Baseline in PSSD Symptom Score, Mean","Week 2, 100 mg QD",−15.2
same,"Change from Baseline in PSSD Symptom Score, Median","Week 2, 100 mg QD",−14.0
same,"Change from Baseline in PSSD Sign Score, LSMean","Week 2, 100 mg QD",−24.3
same,"Change from Baseline in PSSD Symptom Score, LSMean","Week 2, 100 mg QD",−18.4
same,"Change from Baseline in PSSD Sign Score, Mean","Week 4, 25 mg BID",−26.9
same,"Change from Baseline in PSSD Sign Score, Median","Week 4, 25 mg BID",−25.0
same,"Change from Baseline in PSSD Symptom Score, Mean","Week 4, 25 mg BID",−22.8
same,"Change from Baseline in PSSD Symptom Score, Median","Week 4, 25 mg BID",−20.0
same,Subjects Achieving PSSD Symptom Score 0 (%),"Week 4, 25 mg BID, Baseline Symptom Score ≥1, N=41",(4.9%)
same,"Change from Baseline in PSSD Sign Score, LSMean","Week 4, 25 mg BID",−27.5
same,"Change from Baseline in PSSD Symptom Score, LSMean","Week 4, 25 mg BID",−23.1
same,"Change from Baseline in PSSD Sign Score, Mean","Week 4, 25 mg QD",−24.5
same,"Change from Baseline in PSSD Sign Score, Median","Week 4, 25 mg QD",−29.5
same,"Change from Baseline in PSSD Symptom Score, Mean","Week 4, 25 mg QD",−23.6
same,"Change from Baseline in PSSD Symptom Score, Median","Week 4, 25 mg QD",−23.0
same,Subjects Achieving PSSD Symptom Score 0 (%),"Week 4, 25 mg QD, Baseline Symptom Score ≥1, N=43",(2.3%)
same,"Change from Baseline in PSSD Sign Score, LSMean","Week 4, 25 mg QD",−21.7
same,"Change from Baseline in PSSD Symptom Score, LSMean","Week 4, 25 mg QD",−19.9
same,"Change from Baseline in PSSD Sign Score, Mean","Week 4, 50 mg QD",−27.4
same,"Change from Baseline in PSSD Sign Score, Median","Week 4, 50 mg QD",−29.0
